From US9839642B2, “Beta-tetrazolyl-propionic acids as metallo-beta-lactamase inhibitors” (priority 2014, dated 2017)

Key:
NDM-1 = NDM-1 (Klebsiella pneumoniae, UniProt C7C422); experiment: Enzyme activity: determination of IC50, fluorescence assay with CCF2-FA substrate; assay type: biochemical; details: NDM-1 enzyme 1 pM, CCF2-FA 1.25 μM, 2 hours at 25° C.; read-out: NDM1 IC50
Outline: (§1)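 Final enzyme levels differed by target: 1 pM NDM-1, 2 pM IMP-1, 30 pM VIM-1. Each was incubated 2 hours at 25° C with test compound and 1.25 μM CCF2-FA, and 460 nm fluorescence (405 nm excitation) was fitted by 4-parameter curve to obtain IC50.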

VIM-1 = VIM-1 (Pseudomonas aeruginosa, UniProt A0A0F7KYQ8); experiment: as above; assay type: biochemical; details: VIM-1 enzyme 30 pM, CCF2-FA 1.25 μM, 2 hours at 25° C.; read-out: VIM1 IC50
Outline: as §1

IMP-1 = IMP-1 (Serratia marcescens, UniProt P52699); experiment: as above; assay type: biochemical; details: IMP-1 enzyme 2 pM, CCF2-FA 1.25 μM, 2 hours at 25° C.; read-out: IMP1 IC50
Outline: as §1

[1] = system: Serratia marcescens expressing IMP-1 (CL5741); experiment: Antibiotic potentiation activity: synergistic concentration (MITC95) with imipenem, growth by OD600; assay type: cell-based; details: S. marcescens CL5741 (IMP-1), 95% inhibition of growth
Outline: (§2)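 Colonies from overnight agar plates (35 °C) were suspended in saline and diluted 1:100 into 1.1× CAMHB. Inhibitor (final 200 μM to 0.195 μM) was combined with imipenem at 1 or 4 μg/ml, incubated 22–24 h at 35 °C, and absorbance read; MITC95 is the lowest inhibitor concentration giving 95% growth inhibition.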

[2] = system: Klebsiella pneumoniae expressing VIM-1 (IHMA599644); experiment: as above; assay type: cell-based; details: K. pneumoniae IHMA599644 (VIM-1), 95% inhibition of growth
Outline: as §2

[3] = system: Escherichia coli expressing NDM-1 (CLB30016); experiment: as above; assay type: cell-based; details: E. coli CLB30016 (NDM-1), 95% inhibition of growth
Outline: as §2

Sequence of IMP-1 (P52699 19-246, looked up, species assumed): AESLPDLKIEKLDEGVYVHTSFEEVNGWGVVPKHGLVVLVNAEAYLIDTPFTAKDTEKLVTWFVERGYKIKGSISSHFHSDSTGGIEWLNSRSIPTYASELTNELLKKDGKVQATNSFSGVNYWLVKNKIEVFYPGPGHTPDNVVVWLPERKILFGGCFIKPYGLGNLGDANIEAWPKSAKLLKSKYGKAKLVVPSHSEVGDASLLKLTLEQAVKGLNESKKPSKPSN
Sequence of NDM-1 (C7C422 29-270, looked up, species assumed): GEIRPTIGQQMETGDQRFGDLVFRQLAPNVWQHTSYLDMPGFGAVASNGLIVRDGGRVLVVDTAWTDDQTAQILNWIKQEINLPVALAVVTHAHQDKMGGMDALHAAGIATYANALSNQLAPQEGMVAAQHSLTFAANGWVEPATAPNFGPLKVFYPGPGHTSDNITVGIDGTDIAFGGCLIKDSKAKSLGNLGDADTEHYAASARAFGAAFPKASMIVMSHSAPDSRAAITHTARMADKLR

Row | Structure (SMILES) | IC50 (NDM-1) | IC50 (VIM-1) | IC50 (IMP-1) | IMP1 SM5741 MITC95 [1] | VIM1 KP599644 MITC95 [2] | NDM1 EC30016 MITC95 [3]
1 | CC(C)C[C@H](C(=O)O)[C@H](Cc1ccc(N2CC3(CNC(=O)C3)C2)nc1)c1nnn[nH]1 [Example 328, (2S)-4-methyl-2-[(1S)-2-[6-(7-oxo-2,6-diazaspiro[3.4]oct-2-yl)pyridin-3-yl]-1-(1H-tetrazol-5-yl)ethyl]pentanoic acid] | 0.26 µM | 0.012 µM | 1.1 µM | 50 µM | 50 µM | 9.4 µM
2 | CC(C)C[C@H](C(=O)O)[C@H](Cc1ccc(N2CC(N3CCOCC3)C2)nc1)c1nnn[nH]1 [Example 329, (2S)-4-methyl-2-[(1S)-2-[6-(3-morpholin-4-ylazetidin-1-yl)pyridin-3-yl]-1-(1H-tetrazol-5-yl)ethyl]pentanoic acid] | 0.17 µM | 0.049 µM | 0.45 µM | 25 µM | >200 µM | 12.5 µM
3 | CC(C)C[C@H](C(=O)O)[C@H](Cc1ccc(N2CC(CO)(CO)C2)nc1)c1nnn[nH]1 [Example 330, (2S)-2-[(1S)-2-{6-[3,3-bis(hydroxymethyl)azetidin-1-yl]pyridin-3-yl}-1-(1H-tetrazol-5-yl)ethyl]-4-methylpentanoic acid] | 0.1 µM | 0.022 µM | 0.4 µM | 25 µM | 100 µM | 16 µM
4 | CC(C)C[C@H](C(=O)O)[C@H](Cc1ccc(N2CC(C(C)(C)O)C2)nc1)c1nnn[nH]1 [Example 331, (2S)-2-[(1S)-2-{6-[3-(1-hydroxy-1-methylethyl)azetidin-1-yl]pyridin-3-yl}-1-(1H-tetrazol-5-yl)ethyl]-4-methylpentanoic acid] | 0.13 µM | 0.049 µM | 0.34 µM | 18.8 µM | 100 µM | 9.4 µM
5 | CC(C)C[C@H](C(=O)O)[C@H](Cc1ccc(N2CC(N3CCN(C)CC3)C2)nc1)c1nnn[nH]1 [Example 332, (2S)-4-methyl-2-[(1S)-2-{6-[3-(4-methylpiperazin-1-yl)azetidin-1-yl]pyridin-3-yl}-1-(1H-tetrazol-5-yl)ethyl]pentanoic acid] | 0.16 µM | 0.024 µM | 0.54 µM | 12.5 µM | 50 µM | 4.7 µM
6 | CC(C)C[C@H](C(=O)O)[C@H](Cc1ccc(N2CC(CCO)C2)nc1)c1nnn[nH]1 [Example 333, (2S)-2-[(1S)-2-{6-[3-(2-hydroxyethyl)azetidin-1-yl]pyridin-3-yl}-1-(1H-tetrazol-5-yl)ethyl]-4-methylpentanoic acid] | 0.058 µM | 0.0082 µM | 0.17 µM | 12.5 µM | 38 µM | 1.6 µM
7 | CC(C)C[C@H](C(=O)O)[C@H](Cc1ccc(N2CC(S(C)(=O)=O)C2)nc1)c1nnn[nH]1 [Example 335, (2S)-4-methyl-2-[(1S)-2-{6-[3-(methylsulfonyl)azetidin-1-yl]pyridin-3-yl}-1-(1H-tetrazol-5-yl)ethyl]pentanoic acid] | 0.059 µM | 0.0049 µM | 0.056 µM | 3.1 µM | 75 µM | 6.2 µM
8 | CC(C)C[C@H](C(=O)O)[C@H](Cc1ccc(N2CC3(CCNC3)C2)nc1)c1nnn[nH]1 [Example 336, (2S)-2-[(1S)-2-[6-(2,6-diazaspiro[3.4]oct-2-yl)pyridin-3-yl]-1-(1H-tetrazol-5-yl)ethyl]-4-methylpentanoic acid] | 0.18 µM | 0.02 µM | 1.2 µM | 25 µM | 25 µM | 3.1 µM
9 | CC(C)C[C@H](C(=O)O)[C@H](Cc1ccc(N2CC3(CN(C)C(=O)O3)C2)nc1)c1nnn[nH]1 [Example 337, (2S)-4-methyl-2-[(1S)-2-[6-(7-methyl-6-oxo-5-oxa-2,7-diazaspiro[3.4]oct-2-yl)pyridin-3-yl]-1-(1H-tetrazol-5-yl)ethyl]pentanoic acid] | 0.062 µM | 0.01 µM | 0.3 µM | 18.8 µM | 75 µM | 9.4 µM
10 | CC(C)C[C@H](C(=O)O)[C@H](Cc1ccc(N2CC(O)(C(F)(F)F)C2)nc1)c1nnn[nH]1 [Example 338, (2S)-2-[(1S)-2-{6-[3-hydroxy-3-(trifluoromethyl)azetidin-1-yl]pyridin-3-yl}-1-(1H-tetrazol-5-yl)ethyl]-4-methylpentanoic acid] | 0.11 µM | 0.038 µM | 0.2 µM | 9.4 µM | 150 µM | 31 µM
11 | CCC[C@H](C(=O)O)[C@H](Cc1cccc(-c2cccnc2)c1)c1nn[nH]n1 [Example 339, (2S)-2-[(1S)-2-(3-pyridin-3-ylphenyl)-1-(2H-tetrazol-5-yl)ethyl]pentanoic acid] | 0.0036 µM | 0.0014 µM | 0.16 µM | 6.2 µM | 38 µM | 18.8 µM
12 | CCC[C@H](C(=O)O)[C@H](Cc1cccc(-c2ccnc(N3CCNCC3)c2)c1)c1nn[nH]n1 [Example 340, (2S)-2-[(1S)-2-[3-(2-piperazin-1-ylpyridin-4-yl)phenyl]-1-(2H-tetrazol-5-yl)ethyl]pentanoic acid] | 0.046 µM | 0.0035 µM | 0.18 µM | 4.7 µM | 50 µM | 38 µM
13 | CCC[C@H](C(=O)O)[C@H](Cc1cccc(-c2cccc(C(N)=O)c2)c1)c1nn[nH]n1 [Example 341, (2S)-2-[(1S)-2-(3′-carbamoylbiphenyl-3-yl)-1-(2H-tetrazol-5-yl)ethyl]pentanoic acid] | 0.0066 µM | 0.00099 µM | 0.11 µM | 2.3 µM | 18.8 µM | 18.8 µM
14 | CCC[C@H](C(=O)O)[C@H](Cc1cccc(-c2ccc(N)nc2)c1)c1nn[nH]n1 [Example 342, (2S)-2-[(1S)-2-[3-(6-aminopyridin-3-yl)phenyl]-1-(2H-tetrazol-5-yl)ethyl]pentanoic acid] | 0.0047 µM | 0.0011 µM | 0.17 µM | 3.1 µM | 12.5 µM | 6.2 µM
15 | CCC[C@H](C(=O)O)[C@H](Cc1cccc(-c2ccc(NS(C)(=O)=O)cc2)c1)c1nn[nH]n1 [Example 343, (2S)-2-[(1S)-2-{4′-[(methylsulfonyl)amino]biphenyl-3-yl}-1-(2H-tetrazol-5-yl)ethyl]pentanoic acid] | 0.011 µM | 0.0024 µM | 0.022 µM | 0.39 µM | 18.8 µM | 25 µM
16 | CCC[C@H](C(=O)O)[C@H](Cc1cccc(-c2ccc(C(=O)NC)cc2)c1)c1nn[nH]n1 [Example 344, (2S)-2-[(1S)-2-[4′-(methylcarbamoyl)biphenyl-3-yl]-1-(2H-tetrazol-5-yl)ethyl]pentanoic acid] | 0.014 µM | 0.0017 µM | 0.028 µM | 0.59 µM | 50 µM | 38 µM
17 | CCC[C@H](C(=O)O)[C@H](Cc1cccc(-c2cccc(C3CCCNC3)c2)c1)c1nn[nH]n1 (stereo partly drawn) [Example 345, (2S)-2-[(1S)-2-(3′-piperidin-3-ylbiphenyl-3-yl)-1-(2H-tetrazol-5-yl)ethyl]pentanoic acid] | 0.039 µM | 0.0017 µM | 0.27 µM | 6.2 µM | 18.8 µM | 25 µM
18 | CCC[C@H](C(=O)O)[C@H](Cc1cccc(-c2ccc(N3CCOCC3)nc2)c1)c1nn[nH]n1 [Example 346, (2S)-2-[(1S)-2-[3-(6-morpholin-4-ylpyridin-3-yl)phenyl]-1-(2H-tetrazol-5-yl)ethyl]pentanoic acid] | 0.021 µM | 0.0022 µM | 0.32 µM | 6.2 µM | 38 µM | 75 µM
19 | CCC[C@H](C(=O)O)[C@H](Cc1cccc(-c2cncc(CN3CCCCC3)c2)c1)c1nn[nH]n1 [Example 347, (2S)-2-[(1S)-2-{3-[5-(piperidin-1-ylmethyl)pyridin-3-yl]phenyl}-1-(2H-tetrazol-5-yl)ethyl]pentanoic acid] | 0.16 µM | 0.0065 µM | 1.6 µM | 25 µM | 25 µM | 50 µM
